Experiment [1] addresses T1, human EP1 receptor (Homo sapiens, UniProt P34995).
T1 construct: expressed in transfected cells; host or cells: CHO-K1
T1 sequence (P34995 1-402): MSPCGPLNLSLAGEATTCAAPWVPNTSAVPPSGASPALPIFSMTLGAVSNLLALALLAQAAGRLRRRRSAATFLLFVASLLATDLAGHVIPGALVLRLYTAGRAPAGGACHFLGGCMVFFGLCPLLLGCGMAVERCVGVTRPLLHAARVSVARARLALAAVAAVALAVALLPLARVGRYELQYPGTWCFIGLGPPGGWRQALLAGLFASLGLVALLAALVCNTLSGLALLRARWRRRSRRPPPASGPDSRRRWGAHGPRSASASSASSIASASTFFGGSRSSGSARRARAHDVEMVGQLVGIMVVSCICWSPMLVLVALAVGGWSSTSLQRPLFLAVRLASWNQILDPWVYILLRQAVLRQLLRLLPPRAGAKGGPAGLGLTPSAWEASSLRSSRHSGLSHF
Briefly: human EP1 calcium mobilisation assay. The class given is cell-based. As to conditions: human EP1, PGE2-induced calcium mobilisation in CHO-K1 cells; free bases or sodium salts; averages of a number of experiments; read-out: functional pKi value (converted). The procedure, abridged:
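CHO-K1 cells stably expressing human EP1, loaded with Fluo-4 after 24 h at 37° C; compounds added before PGE2 challenge. Inhibition of PGE2-induced [Ca2+]i rise read by FLIPR fluorescence; pIC50 from curve fitting of half-maximal inhibition.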

The target of experiment [2] is T1, human EP1 receptor. The experiment can be described thus: Binding assay for the human prostanoid EP1 receptor (competition with [3H]-PGE2). As to conditions: binding to human EP1 receptor, [3H]-PGE2 competition, CHO-K1 cell membranes; averages of a number of experiments; read-out: pIC50 value (converted). The procedure: Competition assay using [^3H]-PGE2.
Compound potencies are determined using a radioligand binding assay. In this assay compound potencies are determined from their ability to compete with tritiated prostaglandin E2 ([^3H]-PGE2) for binding to the human EP1 receptor.
This assay utilises Chinese hamster ovary-K1 (CHO-K1) cells into which a stable vector containing the EP1 cDNA has previously been transfected. Cells are cultured in suitable flasks containing culture medium such as DMEM:F-12 supplemented with 10% v/v foetal calf serum, 2 mM L-glutamine, 0.25 mg/ml geneticin, 10 μg/ml puromycin and 10 μM indomethacin.
Cells are detached from the culture flasks by incubation in calcium and magnesium free phosphate buffered saline containing 1 mM disodium ethylenediaminetetraacetic acid (Na2EDTA) and 10 μM indomethacin for 5 min. The cells are isolated by centrifugation at 250×g for 5 mins and suspended in an ice cold buffer such as 50 mM Tris, 1 mM Na2EDTA, 140 mM NaCl, 10 μM indomethacin (pH 7.4). The cells are homogenised using a Polytron tissue disrupter (2×10 s burst at full setting), centrifuged at 48,000×g for 20 mins and the pellet containing the membrane fraction is washed (optional) three times by suspension and centrifugation at 48,000×g for 20 mins. The final membrane pellet is suspended in an assay buffer such as 10 mM 2-[N-morpholino]ethanesulphonic acid, 1 mM Na2EDTA, 10 mM MgCl2 (pH 6). Aliquots are frozen at −80° C. until required.
For the binding assay the cell membranes, competing compounds and [^3H]-PGE2 (3 nM final assay concentration) are incubated in a final volume of 100 μl for 30 min at 30° C. All reagents are prepared in assay buffer. Reactions are terminated by rapid vacuum filtration over GF/B filters using a Brandell cell harvester. The filters are washed with ice cold assay buffer, dried and the radioactivity retained on the filters is measured by liquid scintillation counting in Packard TopCount scintillation counter.
The data are analysed using non linear curve fitting techniques to determine the concentration of compound producing 50% inhibition of specific binding (IC50).

Counter-ions that a name gives are not always drawn.

With `Cc1cc(C(=O)O)oc1Cc1cc(Cl)ccc1OCc1ccccc1` [Example 15, Sodium 5-({5-chloro-2-[(phenylmethyl)oxy]phenyl}methyl)-4-methyl-2-furancarboxylate], the Ki on human EP1 receptor [1] is ≤ 10 nM. Also, on human EP1 receptor [2], the IC50 was ≤ 10 nM. `O=C(O)c1ccc(Cc2cc(Cl)ccc2OCc2ccc(F)cc2)o1` [Example 21, Sodium 5-[(5-chloro-2-{[(4-fluorophenyl)methyl]oxy}phenyl)methyl]-2-furancarboxylate]: on human EP1 receptor [1], the Ki was ≤ 10 nM. Also, the IC50 on human EP1 receptor [2] is ≤ 10 nM. For `CCNCc1ccc2nc(-c3ccc(Cc4cc(Cl)ccc4OCC(C)C)o3)[nH]c2c1` [Example 154, N-({2-[5-({5-Chloro-2-[(2-methylpropyl)oxy]-phenyl}methyl)-2-furanyl]-1H-benzimidazol-5-yl}methyl)ethanaminedihydrochloride], at human EP1 receptor [1], the Ki is < 1000 nM. As for `O=C(Nc1ccccc1F)c1ccc(Cc2cc(Cl)ccc2OCc2ccccc2)o1` [Example 69, 5-({5-Chloro-2-[(phenylmethyl)oxy]-phenyl}methyl)-N-(2-fluorophenyl)-2-furancarboxamide], the Ki on human EP1 receptor [1] was < 1000 nM.

As to `CC(C)COc1ccc(Cl)cc1Cc1ccc(-c2nc3ccc(F)c(F)c3[nH]2)o1` [Example 128, 2-[5-({5-Chloro-2-[(2-methylpropyl)oxy]phenyl}-methyl)-2-furanyl]-4,5-difluoro-1H-benzimidazole], at human EP1 receptor [1], the Ki was < 1000 nM.

As for `CC(C)COc1ccc(Cl)cc1Cc1ccc(-c2nc3ccc(CNC(C)C)cc3[nH]2)o1` [Example 155, N-({2-[5-({5-Chloro-2-[(2-methylpropyl)oxy]-phenyl}methyl)-2-furanyl]-1H-benzimidazol-5-yl}methyl)-2-propanaminedihydrochloride], the Ki at human EP1 receptor [1] is < 1000 nM. Regarding `O=C(Nc1c(F)cccc1F)c1ccc(Cc2cc(Cl)ccc2OCc2cccnc2)o1` [Example 92, 5-({5-Chloro-2-[(3-pyridinylmethyl)oxy]phenyl}methyl)-N-(2,6-difluorophenyl)-2-furancarboxamide], the Ki on human EP1 receptor [1] was < 1000 nM. Still for that read-out and setting: as for `CC(C)NC(=O)c1ccc(Cc2cc(Cl)ccc2OCc2ccccc2)o1` [Example 49, 5-({5-Chloro-2-[(phenylmethyl)oxy]phenyl}methyl)-N-(1-methylethyl)-2-furancarboxamide], the figure is < 1000 nM; as for `Clc1ccc(OCc2ccccc2)c(Cc2ccc(-c3nc4cscc4[nH]3)o2)c1` [Example 101, 2-[5-({5-Chloro-2-[(phenylmethyl)oxy]phenyl}methyl)-2-furanyl]-1H-thieno[3,4-d]imidazole], < 1000 nM. As to `O=C(Nc1c(F)cccc1F)c1ccc(Cc2cc(Cl)ccc2OC2CCCC2)o1` [Example 95, 5-{[5-Chloro-2-(cyclopentyloxy)phenyl]-methyl}-N-(2,6-difluorophenyl)-2-furancarboxamide], the Ki at human EP1 receptor [1] was < 1000 nM. Regarding `CC(C)COc1ccc(Cl)cc1Cc1ccc(-c2nc3ccc(CN(C)CC(C)(C)C)cc3[nH]2)o1` [Example 153, N-({2-[5-({5-Chloro-2-[(2-methylpropyl)oxy]-phenyl}methyl)-2-furanyl]-1H-benzimidazol-5-yl}methyl)-N,2,2-trimethyl-1-propanaminedihydrochloride], the Ki at human EP1 receptor [1] is < 1000 nM. The same measure, in the same setting: next, `O=C(Nc1ccccc1)c1ccc(Cc2cc(Cl)ccc2OCc2ccccc2)o1` [Example 70, 5-({5-Chloro-2-[(phenylmethyl)oxy]-phenyl}methyl)-N-phenyl-2-furancarboxamide]: < 1000 nM; `Clc1ccc(OCc2ccccc2)c(Cc2ccc(-c3nc4nccnc4[nH]3)o2)c1` [Example 102, 2-[5-({5-Chloro-2-[(phenylmethyl)oxy]phenyl}methyl)-2-furanyl]-1H-imidazo[4,5-b]pyrazine]: < 1000 nM; `O=C(Nc1c(F)cccc1F)c1ccc(Cc2cc(Cl)ccc2OCc2cc(F)c(F)cc2F)o1` [Example 88, 5-[(5-Chloro-2-{[(2,4,5-trifluorophenyl)methyl]oxy}-phenyl)methyl]-N-(2,6-difluorophenyl)-2-furancarboxamide]: < 1000 nM.

As to `CC(C)COc1ccc(Cl)cc1Cc1ccc(-c2nc3cc(CN(C)C)cnc3[nH]2)o1` [Example 164, ({2-[5-({5-Chloro-2-[(2-methylpropyl)oxy]-phenyl}methyl)-2-furanyl]-1H-imidazo[4,5-b]pyridin-6-yl}methyl)dimethyl-amine dihydrochloride], the Ki on human EP1 receptor [1] was < 1000 nM.

In the case of `CC(C)COc1ccc(Cl)cc1Cc1ccc(-c2nc3cc(F)c(F)cc3[nH]2)o1` [Example 124, 2-[5-({5-Chloro-2-[(2-methylpropyl)oxy]phenyl}-methyl)-2-furanyl]-5,6-difluoro-1H-benzimidazole], the Ki at human EP1 receptor [1] was < 1000 nM. For `CC(C)(C)NC(=O)c1ccc(Cc2cc(Cl)ccc2OCc2ccccc2)o1` [Example 51, 5-({5-Chloro-2-[(phenylmethyl)oxy]phenyl}methyl)-N-(1,1-dimethylethyl)-2-furancarboxamide], the Ki at human EP1 receptor [1] was < 1000 nM. Take `CC(C)(C)CNC(=O)c1ccc(Cc2cc(Cl)ccc2OCc2ccccc2)o1` [Example 52, 5-({5-Chloro-2-[(phenylmethyl)oxy]phenyl}methyl)-N-(2,2-dimethylpropyl)-2-furancarboxamide]: on human EP1 receptor [1], the Ki was < 1000 nM. For `CC(C)COc1ccc(Cl)cc1Cc1ccc(C(=O)NCc2ccc(C#N)cc2)o1` [Example 42, 5-({5-Chloro-2-[(2-methylpropyl)oxy]phenyl}methyl)-N-[(4-cyanophenyl)methyl]-2-furancarboxamide], on human EP1 receptor [1], the Ki was < 1000 nM. Consider `CC(C)COc1ccc(Cl)cc1Cc1ccc(-c2nc3cccc(CO)c3[nH]2)o1` [Example 134, {2-[5-({5-chloro-2-[(2-methylpropyl)oxy]phenyl}methyl)-2-furanyl]-1H-benzimidazol-4-yl}methanol], for which, at human EP1 receptor [1], the Ki is > 1000 nM. On the same count and under the same terms, as for `CC(C)COc1ccc(Cl)cc1Cc1ccc(C(=O)n2cnc3ccccc32)o1` [Example 67, 1-{[5-({5-Chloro-2-[(2-methylpropyl)oxy]-phenyl}methyl)-2-furanyl]carbonyl}-1H-benzimidazole], the figure is < 1000 nM; as for `O=C(Nc1c(F)cccc1F)c1ccc(Cc2cc(Cl)ccc2OCC2CCCCC2)o1` [Example 96, 5-({5-Chloro-2-[(cyclohexylmethyl)oxy]-phenyl}methyl)-N-(2,6-difluorophenyl)-2-furancarboxamide], < 1000 nM; as for `O=C(Nc1c(F)cccc1F)c1ccc(Cc2cc(Cl)ccc2OCc2ccc(F)cc2)o1` [Example 82, 5-[(5-Chloro-2-{[(4-fluorophenyl)methyl]oxy}-phenyl)methyl]-N-(2,6-difluorophenyl)-2-furancarboxamide], < 1000 nM. The same measure, in the same setting: as for `CC(C)COc1ccc(Cl)cc1Cc1ccc(C(=O)NC(C)(C)C)o1` [Example 56, 5-({5-Chloro-2-[(2-methylpropyl)oxy]-phenyl}methyl)-N-(1,1-dimethylethyl)-2-furancarboxamide], the figure is < 1000 nM; as for `CC(C)COc1ccc(Cl)cc1Cc1ccc(-c2ncc[nH]2)o1` [Example 167, 2-[5-({5-Chloro-2-[(2-methylpropyl)oxy]phenyl}methyl)-2-furanyl]-1H-imidazole], ≤ 10 nM. For the compound `CN1CCN(Cc2cccc3nc(-c4ccc(Cc5cc(Cl)ccc5OCc5ccccc5)o4)[nH]c23)CC1` [Example 160, 2-[5-({5-Chloro-2-[(phenylmethyl)oxy]-phenyl}methyl)-2-furanyl]-4-[(4-methyl-1-piperazinyl)methyl]-1H-benzimidazolehydrochloride], the Ki at human EP1 receptor [1] was < 1000 nM.

In the case of `O=C(NCc1ccccc1)c1ccc(Cc2cc(Cl)ccc2OCc2ccccc2)o1` [Example 48, 5-({5-Chloro-2-[(phenylmethyl)oxy]phenyl}methyl)-N-(phenylmethyl)-2-furancarboxamide], the Ki at human EP1 receptor [1] was < 1000 nM.
